From the CheMixHub viscosity set

Test: xn = mol fraction of the nth substance listed

CCN(CC)S(C)(=O)=O + CC(C)O
303.15 K, 101.33 kPa
Settings	viscosity [mPa·s]
x1 = 0.068	15930
x1 = 0.1441	15440
x1 = 0.2157	15650
x1 = 0.2582	15980
x1 = 0.3391	16860
x1 = 0.4088	17920
x1 = 0.4524	18630
x1 = 0.5136	19840
x1 = 0.5952	21830
x1 = 0.6857	24330
x1 = 0.7556	26840
x1 = 0.8417	30570
x1 = 0.9259	35180

CS(C)=O + CC(C)O
viscosity [mPa·s]
Settings	298.15 K	303.15 K	308.15 K	318.15 K
101 kPa, x1 = 0.0385	1.91	1.59	1.46	–
101 kPa, x1 = 0.0787	1.77	1.49	1.36	–
101 kPa, x1 = 0.1001	–	1.525	–	–
101 kPa, x1 = 0.2059	1.51	–	–	–
101 kPa, x1 = 0.2479	1.45	1.32	1.2	–
101 kPa, x1 = 0.339	1.42	1.29	–	–
101 kPa, x1 = 0.4639	1.45	1.32	–	–
101 kPa, x1 = 0.5357	1.48	1.35	1.24	–
101 kPa, x1 = 0.6422	1.55	1.42	1.32	–
101 kPa, x1 = 0.7547	1.66	1.51	1.39	–
101 kPa, x1 = 0.8134	1.72	1.57	1.45	–
101 kPa, x1 = 0.8738	1.8	1.64	1.5	–
101 kPa, x1 = 0.9005	–	–	–	1.285
101 kPa, x1 = 0.936	1.88	1.72	–	–
101.3 kPa, x1 = 0.0788	1.742	1.576	–	–
101.3 kPa, x1 = 0.1608	1.589	1.447	–	–
101.3 kPa, x1 = 0.2475	1.473	1.358	–	–
101.3 kPa, x1 = 0.3389	1.475	1.319	–	–
101.3 kPa, x1 = 0.4347	1.451	–	–	–
101.3 kPa, x1 = 0.5347	1.501	1.346	–	–
101.3 kPa, x1 = 0.6423	1.597	1.406	–	–
101.3 kPa, x1 = 0.7546	1.679	1.505	–	–
101.3 kPa, x1 = 0.8737	1.828	1.622	–	–

CC1(C)OCC(CO)O1 (stereo not given) + CC(O)CO
viscosity [mPa·s], 101 kPa
Settings	x1 = 0.1024	x1 = 0.2011	x1 = 0.2987	x1 = 0.4005	x1 = 0.5	x1 = 0.6041	x1 = 0.6998	x1 = 0.8002	x1 = 0.9017
298.15 K	40.23	35.6	31.55	27.24	22.86	19.38	16.97	14.5	12.03
308.15 K	23.19	20.46	18.03	15.53	13.03	11.25	10.26	9.248	7.738
318.15 K	14.4	12.56	11.33	9.726	8.135	7.174	6.614	6.244	5.465
